Values of other authors, collected in PubChem BioAssay AID1259409 (Chemical Carcinogenesis Research Information System (CCRIS), 2018).

Test system: rodent chemically induced tumor inhibition, incidence and multiplicity
Test: CCRIS tumor inhibitor studies
Conditions: Route [Inhibitor]: ORAL, Species: RAT, Promoter: NONE USED

O=[Se](O)O
tumour outcome (control, treated, inhibition, significance) (Carcinogen: 7,12-DIMETHYLBENZ[A]ANTHRACENE, 57-97-6, Dose [Inhibitor]: 5 PPM IN 25% CORN OIL DIET DAILY FOR 4 WK STARTING 2 WK BEFORE CARCINOGEN TREATMENT AND CONTINUING FOR 2 WK POST CARCINO, Strain/Sex: SPRAGUE-DAWLEY/FEMALE, Target Tissue: Type of Lesion: MAMMARY GLAND: ADENOCARCINOMA, Dose [Carcinogen]: 10 MG ONCE AT 50 D OF AGE): 97%, 72%, 26%, p<0.02 | tumour outcome (control, treated, inhibition, significance) (Carcinogen: 7,12-DIMETHYLBENZ[A]ANTHRACENE, 57-97-6, Dose [Inhibitor]: 5 PPM IN 25% CORN OIL DIET DAILY FOR 10 WK STARTING 2 WK AFTER CARCINOGEN TREATMENT (STUDY DURATION: 24 WK), Strain/Sex: SPRAGUE-DAWLEY/FEMALE, Target Tissue: Type of Lesion: MAMMARY GLAND: ADENOCARCINOMA, Dose [Carcinogen]: 10 MG ONCE AT 50 D OF AGE): 97%, 86%, 11%, not significant | tumour outcome (control, treated, inhibition, significance) (Carcinogen: 7,12-DIMETHYLBENZ[A]ANTHRACENE, 57-97-6, Dose [Inhibitor]: 5 PPM IN 25% CORN OIL DIET DAILY FOR 12 WK STARTING 12 WK AFTER CARCINOGEN TREATMENT (STUDY DURATION: 24 WK), Strain/Sex: SPRAGUE-DAWLEY/FEMALE, Target Tissue: Type of Lesion: MAMMARY GLAND: ADENOCARCINOMA, Dose [Carcinogen]: 10 MG ONCE AT 50 D OF AGE): 97%, 91%, 6%, not significant | tumour outcome (control, treated, inhibition, significance) (Carcinogen: 7,12-DIMETHYLBENZ[A]ANTHRACENE, 57-97-6, Dose [Inhibitor]: 5 PPM IN 25% CORN OIL DIET DAILY FOR 14 WK STARTING 2 WK BEFORE CARCINOGEN TREATMENT (STUDY DURATION: 26 WK), Strain/Sex: SPRAGUE-DAWLEY/FEMALE, Target Tissue: Type of Lesion: MAMMARY GLAND: ADENOCARCINOMA, Dose [Carcinogen]: 10 MG ONCE AT 50 D OF AGE): 97%, 57%, 41%, p<0.02 | tumour outcome (control, treated, inhibition, significance) (Carcinogen: 7,12-DIMETHYLBENZ[A]ANTHRACENE, 57-97-6, Dose [Inhibitor]: 5 PPM IN 25% CORN OIL DIET DAILY FOR 22 WK STARTING 2 WK AFTER CARCINOGEN TREATMENT AND CONTINUING FOR DURATION OF STUDY, Strain/Sex: SPRAGUE-DAWLEY/FEMALE, Target Tissue: Type of Lesion: MAMMARY GLAND: ADENOCARCINOMA, Dose [Carcinogen]: 10 MG ONCE AT 50 D OF AGE): 97%, 69%, 26%, p<0.02 | tumour outcome (control, treated, inhibition, significance) (Carcinogen: 7,12-DIMETHYLBENZ[A]ANTHRACENE, 57-97-6, Dose [Inhibitor]: 5 PPM IN 25% CORN OIL DIET DAILY FOR 26 WK STARTING 2 WK BEFORE CARCINOGEN TREATMENT AND CONTINUING FOR DURATION OF STUD, Strain/Sex: SPRAGUE-DAWLEY/FEMALE, Target Tissue: Type of Lesion: MAMMARY GLAND: ADENOCARCINOMA, Dose [Carcinogen]: 10 MG ONCE AT 50 D OF AGE): 97%, 46%, 53%, p<0.02 | tumour outcome (control, treated, inhibition, significance) (Carcinogen: AZOXYMETHANE, 25843-45-2, Dose [Inhibitor]: 0.5 PPM IN DIET BEGINNING 1 WK POST CARCINOGEN DOSE FOR DURATION OF STUDY (STUDY DURATION: 39 WK), Strain/Sex: F344/MALE, Target Tissue: Type of Lesion: COLON: ADENOCARCINOMA, Dose [Carcinogen]: 15 MG/KG BW 1/WK FOR 2 WK): 10/27 (37%), 9/27 (33%), 11%, not significant | tumour outcome (control, treated, inhibition, significance) (Carcinogen: AZOXYMETHANE, 25843-45-2, Dose [Inhibitor]: 0.5 PPM IN DIET BEGINNING 1 WK POST CARCINOGEN DOSE FOR DURATION OF STUDY (STUDY DURATION: 39 WK), Strain/Sex: F344/MALE, Target Tissue: Type of Lesion: COLON: ADENOMA, Dose [Carcinogen]: 15 MG/KG BW 1/WK FOR 2 WK): 16/27 (59%), 20/27 (74%), -25%, not significant | tumour outcome (control, treated, inhibition, significance) (Carcinogen: AZOXYMETHANE, 25843-45-2, Dose [Inhibitor]: 0.5 PPM IN DIET BEGINNING 1 WK POST CARCINOGEN DOSE FOR DURATION OF STUDY (STUDY DURATION: 39 WK), Strain/Sex: F344/MALE, Target Tissue: Type of Lesion: DUODENUM: ADENOCARCINOMA, Dose [Carcinogen]: 15 MG/KG BW 1/WK FOR 2 WK): 7/27 (26%), 7/27 (26%), 0%, not significant | tumour outcome (control, treated, inhibition, significance) (Carcinogen: AZOXYMETHANE, 25843-45-2, Dose [Inhibitor]: 0.5 PPM IN DIET BEGINNING 1 WK POST CARCINOGEN DOSE FOR DURATION OF STUDY (STUDY DURATION: 39 WK), Strain/Sex: F344/MALE, Target Tissue: Type of Lesion: DUODENUM: ADENOMA, Dose [Carcinogen]: 15 MG/KG BW 1/WK FOR 2 WK): 3/27 (11%), 4/27 (15%), -36%, not significant | tumour outcome (control, treated, inhibition, significance) (Carcinogen: AZOXYMETHANE, 25843-45-2, Dose [Inhibitor]: 0.5 PPM IN DIET BEGINNING 3 WK PRIOR TO CARCINOGEN DOSE AND CONTINUING FOR 1 WK POST CARCINOGEN DOSE (STUDY DURATION: 39, Strain/Sex: F344/MALE, Target Tissue: Type of Lesion: COLON: ADENOMA, Dose [Carcinogen]: 15 MG/KG BW 1/WK FOR 2 WK): 16/27 (59%), 16/27 (59%), 0%, not significant | tumour outcome (control, treated, inhibition, significance) (Carcinogen: AZOXYMETHANE, 25843-45-2, Dose [Inhibitor]: 0.5 PPM IN DIET BEGINNING 3 WK PRIOR TO CARCINOGEN DOSE AND CONTINUING FOR 1 WK POST CARCINOGEN DOSE (STUDY DURATION: 39, Strain/Sex: F344/MALE, Target Tissue: Type of Lesion: DUODENUM: ADENOCARCINOMA, Dose [Carcinogen]: 15 MG/KG BW 1/WK FOR 2 WK): 7/27 (26%), 7/27 (26%), 0%, not significant | tumour outcome (control, treated, inhibition, significance) (Carcinogen: AZOXYMETHANE, 25843-45-2, Dose [Inhibitor]: 0.5 PPM IN DIET BEGINNING 3 WK PRIOR TO CARCINOGEN DOSE AND CONTINUING FOR 1 WK POST CARCINOGEN DOSE (STUDY DURATION: 39, Strain/Sex: F344/MALE, Target Tissue: Type of Lesion: DUODENUM: ADENOMA, Dose [Carcinogen]: 15 MG/KG BW 1/WK FOR 2 WK): 3/27 (11%), 2/27 (7%), 36%, not calculated | tumour outcome (control, treated, inhibition, significance) (Carcinogen: AZOXYMETHANE, 25843-45-2, Dose [Inhibitor]: 2.5 PPM IN DIET BEGINNING 1 WK POST CARCINOGEN DOSE FOR DURATION OF STUDY (STUDY DURATION: 39 WK), Strain/Sex: F344/MALE, Target Tissue: Type of Lesion: COLON: ADENOCARCINOMA, Dose [Carcinogen]: 15 MG/KG BW 1/WK FOR 2 WK): 10/27 (37%), 1/27 (4%), 89%, p<0.05 | tumour outcome (control, treated, inhibition, significance) (Carcinogen: AZOXYMETHANE, 25843-45-2, Dose [Inhibitor]: 2.5 PPM IN DIET BEGINNING 1 WK POST CARCINOGEN DOSE FOR DURATION OF STUDY (STUDY DURATION: 39 WK), Strain/Sex: F344/MALE, Target Tissue: Type of Lesion: COLON: ADENOMA, Dose [Carcinogen]: 15 MG/KG BW 1/WK FOR 2 WK): 16/27 (59%), 12/27 (44%), 25%, not significant
